# Experimental data from PubChem BioAssay (NCI).
#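 Exposure lasted 48 hours, with cells grown in 96-well plates and compounds tested at five concentrations. TGI: concentration producing complete growth inhibition.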 Where a SMILES comes first, the peptide text is derived from it. The star is where a group is joined. Boc = CC(C)(C)OC(=O)*
# What was measured:
# Assay in all cases: NCI-60 cell line screen, 48 h
# COLO 205 colon = tested on: COLO 205 colon
# NCI-H460 lung = tested on: NCI-H460 lung
# HL-60(TB) leukemia = tested on: HL-60(TB) leukemia
# NCI-H226 lung = tested on: NCI-H226 lung
# SK-MEL-28 melanoma = tested on: SK-MEL-28 melanoma
# U251 CNS = tested on: U251 CNS
# MDA-N = tested on: MDA-N
# CAKI-1 renal = tested on: CAKI-1 renal
# BT-549 breast = tested on: BT-549 breast
# TK-10 renal = tested on: TK-10 renal
# HOP-62 NSCLC = tested on: HOP-62 NSCLC
# SF-295 CNS = tested on: SF-295 CNS
# SN12C renal = tested on: SN12C renal
# ACHN renal = tested on: ACHN renal
# SNB-19 CNS = tested on: SNB-19 CNS
# A549 NSCLC = tested on: A549 NSCLC
# M14 melanoma = tested on: M14 melanoma
# MDA-MB-435 = tested on: MDA-MB-435
# MOLT-4 leukemia = tested on: MOLT-4 leukemia
# DU-145 prostate = tested on: DU-145 prostate
# K-562 leukemia = tested on: K-562 leukemia
# HOP-92 NSCLC = tested on: HOP-92 NSCLC
# HCT-15 colon = tested on: HCT-15 colon
# SNB-75 CNS = tested on: SNB-75 CNS
# SF-539 CNS = tested on: SF-539 CNS
# HT29 colon = tested on: HT29 colon
# MDA-MB-231 breast = tested on: MDA-MB-231 breast
# RPMI-8226 leukemia = tested on: RPMI-8226 leukemia
# A498 renal = tested on: A498 renal
# SK-MEL-5 melanoma = tested on: SK-MEL-5 melanoma
# PC-3 prostate = tested on: PC-3 prostate
# OVCAR-3 ovarian = tested on: OVCAR-3 ovarian
# SF-268 CNS = tested on: SF-268 CNS
# NCI-H23 lung = tested on: NCI-H23 lung
# SR leukemia = tested on: SR leukemia
# OVCAR-5 ovarian = tested on: OVCAR-5 ovarian
# IGROV1 ovarian = tested on: IGROV1 ovarian
# UACC-257 melanoma = tested on: UACC-257 melanoma
# SK-OV-3 ovarian = tested on: SK-OV-3 ovarian
# UO-31 renal = tested on: UO-31 renal
# OVCAR-8 ovarian = tested on: OVCAR-8 ovarian
# NCI-H522 lung = tested on: NCI-H522 lung
# EKVX NSCLC = tested on: EKVX NSCLC
# NCI/ADR-RES ovarian = tested on: NCI/ADR-RES ovarian
# UACC-62 melanoma = tested on: UACC-62 melanoma
# LOX IMVI melanoma = tested on: LOX IMVI melanoma
# CCRF-CEM leukemia = tested on: CCRF-CEM leukemia
# RXF 393 renal = tested on: RXF 393 renal
# SW-620 colon = tested on: SW-620 colon
# 786-0 renal = tested on: 786-0 renal
# HCC-2998 colon = tested on: HCC-2998 colon
# OVCAR-4 ovarian = tested on: OVCAR-4 ovarian
# MCF7 breast = tested on: MCF7 breast
# T-47D breast = tested on: T-47D breast
# HCT-116 colon = tested on: HCT-116 colon
# KM12 colon = tested on: KM12 colon
# HS 578T breast = tested on: HS 578T breast
# SK-MEL-2 melanoma = tested on: SK-MEL-2 melanoma
# MALME-3M melanoma = tested on: MALME-3M melanoma
structure (smiles),measurement,setting,value
O=C(/C=C\c1ccsc1)c1ccccc1,TGI,COLO 205 colon,30.5 µM
same,TGI,NCI-H460 lung,25.2 µM
same,TGI,HL-60(TB) leukemia,4.16 µM
same,TGI,NCI-H226 lung,34.1 µM
same,TGI,SK-MEL-28 melanoma,24.9 µM
same,TGI,U251 CNS,15.3 µM
same,TGI,MDA-N,25.8 µM
same,TGI,CAKI-1 renal,8.12 µM
same,TGI,BT-549 breast,26.2 µM
same,TGI,TK-10 renal,29.3 µM
same,TGI,HOP-62 NSCLC,30.7 µM
same,TGI,SF-295 CNS,29.3 µM
same,TGI,SN12C renal,24.6 µM
same,TGI,ACHN renal,21.1 µM
same,TGI,SNB-19 CNS,25.9 µM
same,TGI,A549 NSCLC,8.48 µM
same,TGI,M14 melanoma,21.8 µM
same,TGI,MDA-MB-435,23.1 µM
same,TGI,MOLT-4 leukemia,> 100 µM
same,TGI,DU-145 prostate,25.4 µM
same,TGI,K-562 leukemia,> 70.6 µM
same,TGI,HOP-92 NSCLC,41.4 µM
same,TGI,HCT-15 colon,14.6 µM
same,TGI,SNB-75 CNS,24.3 µM
same,TGI,SF-539 CNS,24.2 µM
same,TGI,HT29 colon,15.5 µM
same,TGI,MDA-MB-231 breast,18.5 µM
same,TGI,RPMI-8226 leukemia,7.32 µM
same,TGI,A498 renal,15.5 µM
same,TGI,SK-MEL-5 melanoma,27.3 µM
same,TGI,PC-3 prostate,24.1 µM
same,TGI,OVCAR-3 ovarian,27.9 µM
same,TGI,SF-268 CNS,21.8 µM
same,TGI,NCI-H23 lung,15.6 µM
same,TGI,SR leukemia,> 21.7 µM
same,TGI,OVCAR-5 ovarian,32.4 µM
same,TGI,IGROV1 ovarian,22.2 µM
same,TGI,UACC-257 melanoma,34.8 µM
same,TGI,SK-OV-3 ovarian,30.8 µM
same,TGI,UO-31 renal,19.2 µM
same,TGI,OVCAR-8 ovarian,27.2 µM
same,TGI,NCI-H522 lung,4.34 µM
same,TGI,EKVX NSCLC,27.7 µM
same,TGI,NCI/ADR-RES ovarian,32.4 µM
same,TGI,UACC-62 melanoma,24.6 µM
same,TGI,LOX IMVI melanoma,7.58 µM
same,TGI,CCRF-CEM leukemia,3.41 µM
same,TGI,RXF 393 renal,18.7 µM
same,TGI,SW-620 colon,12.3 µM
same,TGI,786-0 renal,19.7 µM
same,TGI,HCC-2998 colon,24.3 µM
same,TGI,OVCAR-4 ovarian,16.4 µM
same,TGI,MCF7 breast,6.72 µM
same,TGI,T-47D breast,19.7 µM
same,TGI,HCT-116 colon,14.5 µM
same,TGI,KM12 colon,8.5 µM
same,TGI,HS 578T breast,20.4 µM
same,TGI,SK-MEL-2 melanoma,34.4 µM
CC(NC(=O)C1CCCN1C(=O)CNC(=O)OC(C)(C)C)C(=O)O (stereo not drawn) (Boc-Gly-Pro-Ala-OH; configuration not given here),TGI,COLO 205 colon,> 100 µM
same,TGI,NCI-H460 lung,> 100 µM
same,TGI,NCI-H226 lung,> 100 µM
same,TGI,SK-MEL-28 melanoma,> 100 µM
same,TGI,U251 CNS,> 100 µM
same,TGI,MDA-N,> 100 µM
same,TGI,CAKI-1 renal,> 100 µM
same,TGI,BT-549 breast,> 100 µM
same,TGI,TK-10 renal,> 100 µM
same,TGI,HOP-62 NSCLC,> 100 µM
same,TGI,SF-295 CNS,> 100 µM
same,TGI,SN12C renal,> 100 µM
same,TGI,ACHN renal,> 100 µM
same,TGI,SNB-19 CNS,> 100 µM
same,TGI,A549 NSCLC,> 100 µM
same,TGI,M14 melanoma,> 100 µM
same,TGI,MDA-MB-435,> 100 µM
same,TGI,MOLT-4 leukemia,> 100 µM
same,TGI,MALME-3M melanoma,> 100 µM
same,TGI,DU-145 prostate,> 100 µM
same,TGI,K-562 leukemia,> 100 µM
same,TGI,HOP-92 NSCLC,> 100 µM
same,TGI,HCT-15 colon,> 100 µM
same,TGI,SNB-75 CNS,> 100 µM
same,TGI,SF-539 CNS,> 100 µM
same,TGI,HT29 colon,> 100 µM
same,TGI,MDA-MB-231 breast,> 100 µM
same,TGI,RPMI-8226 leukemia,> 100 µM
same,TGI,SK-MEL-5 melanoma,> 100 µM
same,TGI,PC-3 prostate,> 100 µM
same,TGI,OVCAR-3 ovarian,> 100 µM
same,TGI,SF-268 CNS,> 100 µM
same,TGI,NCI-H23 lung,> 100 µM
same,TGI,SR leukemia,> 100 µM
same,TGI,OVCAR-5 ovarian,> 100 µM
same,TGI,IGROV1 ovarian,> 100 µM
same,TGI,UACC-257 melanoma,> 100 µM
same,TGI,SK-OV-3 ovarian,> 100 µM
same,TGI,UO-31 renal,> 100 µM
same,TGI,OVCAR-8 ovarian,> 100 µM
same,TGI,NCI-H522 lung,> 100 µM
same,TGI,EKVX NSCLC,> 100 µM
same,TGI,NCI/ADR-RES ovarian,> 100 µM
same,TGI,UACC-62 melanoma,> 100 µM
same,TGI,RXF 393 renal,> 100 µM
same,TGI,SW-620 colon,> 100 µM
same,TGI,786-0 renal,> 100 µM
same,TGI,HCC-2998 colon,> 100 µM
same,TGI,MCF7 breast,> 100 µM
same,TGI,T-47D breast,> 100 µM
same,TGI,KM12 colon,> 100 µM
same,TGI,HS 578T breast,> 100 µM
same,TGI,SK-MEL-2 melanoma,> 100 µM
